Data on five molecules can be found in publication PMC7918738, “Microtubule Destabilizing Sulfonamides as an Alternative to Taxane-Based Chemotherapy” (International Journal of Molecular Sciences, 2021).

≈ marks a conversion by molar mass, not a printed value.

Data set [1] deals with HeLa (cervix epithelioid carcinoma). Kind of data set: Antiproliferative activity against HeLa (XTT colorimetric method). Type of data set: cell-based. The settings on record: Homo sapiens, 72 h treatment. A digest of the protocol:
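XTT read-out at 450 nm after 4 h labelling; cells seeded, allowed 24 h to attach, then exposed 72 h to compound, screened at 1 µM and, if active, titrated 10^−5 to 10^−10 M. IC50 relative to untreated controls by non-linear fit; DMSO ≤0.5%; triplicate, three experiments.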

Data set [2] relates to tubulin (microtubular protein isolated from calf brain). Description: Tubulin Polymerization Inhibition (TPI) assay, turbidity. The following applies: 1.5 mg/mL microtubular protein; for TPI % 10 µM: compound at 10 µM. Type of data set: biochemical. A digest of the protocol: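 Calf-brain microtubular protein (1.5 mg/mL) in 0.1 M MES pH 6.7 with EGTA, MgCl2, β-ME and 1.5 mM GTP was preincubated with compound 30 min at 20 °C. Polymerization on shift from 4 °C to 37 °C was followed by turbidity at 450 nm, and inhibition was expressed as % of DMSO control.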

A short description of data set [3]: Aqueous solubility, saturation shake-flask method, UV absorbance. The following applies: phosphate buffer, pH 7, aqueous buffer, thermodynamic from solid.

One may read the IC50 as the concentration at which inhibition is half-maximal. Low values mean inhibition by little substance, high ones a need for much substance. The term melting point denotes the temperature, or range, at which the solid turns liquid. A word on the solubility: it is the concentration that dissolves in the medium under given conditions. High values mean much dissolved substance, low ones little dissolved substance. `CCN(c1cc(OC)c(OC)c(OC)c1)S(=O)(=O)c1ccc(OC)cc1` [Compound 3] registered a melting point of 140 to 143 °C. The molecule further yielded an IC50 in data set [1] of 99 nM. Further, in data set [2], the IC50 was > 20 µM and the “TPI % 10 µM” value stood at 25%. In data set [3], this molecule returned a solubility at 48 h of 30 µg/mL (≈ 78.6 µM).

For the molecule `COc1cc(NS(=O)(=O)c2ccc(N)cc2)cc(OC)c1OC` [Compound 26], the melting point lay within 177 to 179 °C. Also, in data set [1], the IC50 is > 1000 nM. In data set [2], the IC50 is > 20 µM and the “TPI % 10 µM” value was 0%. In data set [3], this molecule registered a solubility at 48 h of 28 µg/mL (≈ 82.7 µM).

The molecule `COc1ccc(S(=O)(=O)N(CC#N)c2cc(OC)c(OC)c(OC)c2)cc1N` [Compound 44] gave a melting point of 139 to 145 °C. This molecule came in with an IC50 in data set [1] of 60 nM. In addition, in data set [2], the IC50 is > 20 µM and the “TPI % 10 µM” value was 5%. In data set [3], this molecule had a solubility at 48 h of 46 µg/mL (≈ 113 µM).

`CNc1ccc(S(=O)(=O)Nc2cc(OC)c(OC)c(OC)c2)cc1` [Compound 37] returned a melting point of 200 to 206 °C. In data set [1], this molecule displayed an IC50 of 607 nM. Moreover, in data set [2], the IC50 was > 20 µM and the “TPI % 10 µM” value was determined as 7%. The same molecule had a solubility at 48 h in data set [3] of 43 µg/mL (≈ 122 µM).

In the case of `COc1ccc(S(=O)(=O)Nc2cc(OC)c(OC)c(OC)c2)cc1` [Compound 1a], the melting point was in the range of 115 to 116 °C. The molecule also showed a half-inhibitory concentration (IC50) in data set [1] of 240 nM. In data set [2], the IC50 is > 20 µM and the “TPI % 10 µM” value came out at 0%. In data set [3], the concentration in solution (solubility at 48 h) came to 83 µg/mL (≈ 235 µM).
